One data set relates to Plasmodium falciparum. Description: Antimalarial activity against asexual blood stage form of Plasmodium falciparum Dd2 infected in human erythrocytes after 72 hrs by DAPI staining. In kind it is functional. The following applies: Dd2, 72 h.
Data set [1] concerns the target T1, Dihydroorotate dehydrogenase (Plasmodium falciparum) (UniProt Q54A96).
T1 sequence (whole entry): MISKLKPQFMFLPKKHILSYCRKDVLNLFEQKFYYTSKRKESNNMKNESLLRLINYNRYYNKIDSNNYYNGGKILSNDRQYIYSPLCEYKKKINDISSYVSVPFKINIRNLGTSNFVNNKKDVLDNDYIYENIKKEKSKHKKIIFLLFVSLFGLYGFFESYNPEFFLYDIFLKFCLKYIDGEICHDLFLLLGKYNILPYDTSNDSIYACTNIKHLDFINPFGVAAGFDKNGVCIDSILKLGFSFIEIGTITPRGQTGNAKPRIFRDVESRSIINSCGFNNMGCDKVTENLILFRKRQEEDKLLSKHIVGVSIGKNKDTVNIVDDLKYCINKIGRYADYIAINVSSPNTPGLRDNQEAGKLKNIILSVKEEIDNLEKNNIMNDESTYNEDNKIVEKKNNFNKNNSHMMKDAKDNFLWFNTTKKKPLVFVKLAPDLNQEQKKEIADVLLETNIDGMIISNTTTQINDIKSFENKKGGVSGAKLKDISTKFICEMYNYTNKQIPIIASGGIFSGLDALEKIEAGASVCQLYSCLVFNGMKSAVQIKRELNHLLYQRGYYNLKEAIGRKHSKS
Description: Inhibition of Plasmodium falciparum DHODH-mediated 2,6-dichloroindophenol reduction after 20 mins by spectrophotometry.

The subject of a further data set is Plasmodium berghei. Description: Inhibition of Plasmodium berghei DHODH-mediated 2,6-dichloroindophenol reduction after 20 mins by spectrophotometry.
Data set [2] concerns the target Dihydroorotate dehydrogenase (quinone), mitochondrial (Homo sapiens) (UniProt Q02127). Description: Inhibition of human DHODH-mediated 2,6-dichloroindophenol reduction after 20 mins by spectrophotometry.
A further data set deals with Plasmodium vivax. Description: Inhibition of Plasmodium vivax DHODH-mediated 2,6-dichloroindophenol reduction after 20 mins by spectrophotometry.
A short description of data set [3]: Aqueous solubility of the compound. Type of data set: physicochemical. The settings on record: water.

In brackets after ≈: the same amount, converted by molar mass. A value given as a limit tells only on which side of the number the result lay.

Sequence of Dihydroorotate dehydrogenase (quinone), mitochondrial (Homo sapiens) (Q02127 whole entry): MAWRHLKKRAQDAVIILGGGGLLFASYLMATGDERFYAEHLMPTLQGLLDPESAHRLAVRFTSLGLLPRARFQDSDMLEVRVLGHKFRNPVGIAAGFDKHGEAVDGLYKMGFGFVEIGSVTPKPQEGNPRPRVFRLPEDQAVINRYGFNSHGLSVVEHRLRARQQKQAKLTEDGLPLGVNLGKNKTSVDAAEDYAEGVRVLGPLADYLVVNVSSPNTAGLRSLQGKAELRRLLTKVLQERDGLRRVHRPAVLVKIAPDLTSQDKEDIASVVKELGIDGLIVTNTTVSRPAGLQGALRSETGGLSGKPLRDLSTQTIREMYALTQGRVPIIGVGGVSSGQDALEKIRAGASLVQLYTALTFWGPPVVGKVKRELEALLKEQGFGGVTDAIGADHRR

Turning to `C[C@@H]1CN([C@@H](C)CO)C(=O)c2cc(NC(=O)Nc3ccccc3)ccc2O[C@@H](C)CCCCO[C@H]1CN(C)S(=O)(=O)c1cccnc1`, in the data set with Plasmodium falciparum, the GI50 is > 5000 nM.
Molecule `Cc1noc(C)c1NC(=O)Nc1ccc2c(c1)C(=O)N([C@@H](C)CO)C[C@@H](C)[C@H](CN(C)S(=O)(=O)c1ccc(F)cc1)OCCCC[C@H](C)O2` displayed a 50% growth inhibitory concentration (GI50) in the data set with Plasmodium falciparum of 240 nM.
`C[C@@H]1CN([C@@H](C)CO)C(=O)c2cc(NC(=O)Nc3ccccc3)ccc2O[C@@H](C)CCCCO[C@H]1CN(C)S(=O)(=O)c1ccccc1F`: the 50% growth inhibitory concentration (GI50) in the data set with Plasmodium falciparum was found to be 1100 nM.
Same read-out and setting: for `C[C@@H]1CN([C@@H](C)CO)C(=O)c2cc(NC(=O)Nc3ccccc3)ccc2O[C@@H](C)CCCCO[C@H]1CN(C)C(=O)c1ccccc1` the value was 2600 nM.
In the data set with Plasmodium falciparum, `COc1ccc(COC[C@H](C)N2C[C@@H](C)[C@H](CN(C)S(=O)(=O)c3ccc(F)cc3)OCCCC[C@H](C)Oc3ccc(NC(=O)Nc4ccccc4)cc3C2=O)cc1` yielded a concentration for 50% growth inhibition (GI50) of 0.18 nM.
On the same count and under the same terms, for `C[C@@H]1CN([C@@H](C)CO)C(=O)c2cc(Nc3nc4ccccc4o3)ccc2O[C@@H](C)CCCCO[C@H]1CN(C)S(=O)(=O)c1ccc(F)cc1` the value was 580 nM; for `C[C@@H]1CN([C@@H](C)CO)C(=O)c2cc(NC(=O)Nc3ccccc3)ccc2O[C@@H](C)CCCCO[C@H]1CN(C)S(=O)(=O)c1ccccc1`, 350 nM; for `C[C@@H]1CN([C@@H](C)CO)C(=O)c2cc(NS(=O)(=O)c3ccccc3)ccc2O[C@@H](C)CCCCO[C@H]1CN(C)S(=O)(=O)c1ccc(F)cc1`, 2400 nM.
Same read-out and setting: for `C[C@@H]1CN([C@@H](C)CO)C(=O)c2cc(NC(=O)Nc3ccccc3)ccc2O[C@@H](C)CCCCO[C@H]1CN(C)S(=O)(=O)c1ccc(C(F)(F)F)cc1` the value was 877 nM; for `COc1ccc(COCCN2C[C@@H](C)[C@H](CN(C)S(=O)(=O)c3ccc(F)cc3)OCCCC[C@H](C)Oc3ccc(NC(=O)Nc4ccccc4)cc3C2=O)cc1`, 55 nM.
`COc1ccc(S(=O)(=O)N(C)C[C@@H]2OCCCC[C@H](C)Oc3ccc(NC(=O)Nc4ccccc4)cc3C(=O)N([C@@H](C)CO)C[C@H]2C)cc1`: the concentration for 50% growth inhibition (GI50) with Plasmodium falciparum is 160 nM.
`C[C@@H]1CN([C@@H](C)CN=[N+]=[N-])C(=O)c2cc(NC(=O)Nc3ccccc3)ccc2O[C@@H](C)CCCCO[C@H]1CN(C)S(=O)(=O)c1ccc(F)cc1` gave a GI50 in the data set with Plasmodium falciparum of 3.2 nM.
The same measure, in the same setting: for `C[C@@H]1CN([C@@H](C)CN)C(=O)c2cc(NC(=O)Nc3ccccc3)ccc2O[C@@H](C)CCCCO[C@H]1CN(C)S(=O)(=O)c1ccc(F)cc1` the value was 370 nM.
On the same count and under the same terms, for `CNC[C@H](C)N1C[C@@H](C)[C@H](CN(C)S(=O)(=O)c2ccc(F)cc2)OCCCC[C@H](C)Oc2ccc(NC(=O)Nc3ccccc3)cc2C1=O` the value was 79 nM; for `C[C@@H]1CN([C@@H](C)CO)C(=O)c2cc(N)ccc2O[C@@H](C)CCCCO[C@H]1CN(C)S(=O)(=O)c1ccc(F)cc1`, 990 nM.
In the data set on Plasmodium falciparum, `COc1ccc(COC[C@@H](C)N2C[C@@H](C)[C@H](CN(C)S(=O)(=O)c3ccc(F)cc3)OCCCC[C@H](C)Oc3ccc(NC(=O)Nc4ccccc4)cc3C2=O)cc1` displayed a concentration for 50% growth inhibition (GI50) of 36 nM.
The same measure, in the same setting: for `C[C@@H]1CN([C@@H](C)CO)C(=O)c2cc(NC(=O)Nc3ccccc3)ccc2O[C@@H](C)CCCCO[C@H]1CN(C)Cc1ccccc1` the value was 1100 nM; for `C[C@@H]1CN(CCO)C(=O)c2cc(NC(=O)Nc3ccccc3)ccc2O[C@@H](C)CCCCO[C@H]1CN(C)S(=O)(=O)c1ccc(F)cc1`, 640 nM.
Take `C[C@@H]1CN([C@@H](C)CN(C)C)C(=O)c2cc(NC(=O)Nc3ccccc3)ccc2O[C@@H](C)CCCCO[C@H]1CN(C)S(=O)(=O)c1ccc(F)cc1`: the INH (in data set [1]; with Plasmodium berghei; in data set [2]; in the data set with Plasmodium vivax) was > 30 µM each time.
`C[C@@H]1CN([C@@H](C)COC(=O)c2ccccc2)C(=O)c2cc(NC(=O)Nc3ccccc3)ccc2O[C@@H](C)CCCCO[C@H]1CN(C)S(=O)(=O)c1ccc(F)cc1` came in with a 50% growth inhibitory concentration (GI50) in the data set with Plasmodium falciparum of 15 nM.
In the case of `C[C@@H]1CN([C@@H](C)COC(=O)C(C)(C)C)C(=O)c2cc(NC(=O)Nc3ccccc3)ccc2O[C@@H](C)CCCCO[C@H]1CN(C)S(=O)(=O)c1ccc(F)cc1`, the 50% growth inhibitory concentration (GI50) with Plasmodium falciparum turned out to be 7.3 nM. Besides, the solubility in data set [3] is < 0.5 µM.
On to `COCOC[C@H](C)N1C[C@@H](C)[C@H](CN(C)S(=O)(=O)c2ccc(F)cc2)OCCCC[C@H](C)Oc2ccc(NC(=O)Nc3ccccc3)cc2C1=O`, for which it took 8.2 nM to inhibit growth in the data set with Plasmodium falciparum by half (GI50).
With `C[C@@H]1CN([C@@H](C)CO)C(=O)c2cc(NC(=O)Nc3ccccc3)ccc2O[C@@H](C)CCCCO[C@H]1CN(C)C(=O)OC(C)(C)C`, the GI50 in the data set on Plasmodium falciparum was determined as 1400 nM.
`C[C@@H]1CN([C@@H](C)CO)C(=O)c2cc(N(C)C)ccc2O[C@@H](C)CCCCO[C@H]1CN(C)S(=O)(=O)c1ccc(F)cc1`: in the data set on Plasmodium falciparum, the GI50 was > 5000 nM.
`CC(C)NC(=O)Nc1ccc2c(c1)C(=O)N([C@@H](C)CO)C[C@@H](C)[C@H](CN(C)S(=O)(=O)c1ccc(F)cc1)OCCCC[C@H](C)O2`: halving of growth in the data set on Plasmodium falciparum (GI50) required 400 nM.
Still for that read-out and setting: for `COCCOC(=O)N(C)C[C@@H]1OCCCC[C@H](C)Oc2ccc(NC(=O)Nc3ccccc3)cc2C(=O)N([C@@H](C)CO)C[C@H]1C` the value was > 5000 nM.
In the data set with Plasmodium falciparum, `C[C@@H]1CN([C@@H](C)CO)C(=O)c2cc(NC(=O)Nc3ccccc3)ccc2O[C@@H](C)CCCCO[C@H]1CN(C)Cc1ccc(F)cc1` displayed a GI50 of 4300 nM.
Consider `C[C@@H]1CN([C@@H](C)CO)C(=O)c2cc(NC(=O)Nc3ccccc3)ccc2O[C@@H](C)CCCCO[C@H]1CN(C)C(=O)Oc1ccccc1`, for which the GI50 in the data set on Plasmodium falciparum was > 5000 nM. Besides, the solubility in data set [3] was 1.2 µM (≈ 0.776 µg/mL).

By GI50 is commonly meant the concentration at which growth is held to half of that of the control. The term solubility denotes the concentration that dissolves in the medium under given conditions. Higher therefore signals much dissolved substance.
